Measured values from patent publication US9534259B2, “DOT1 histone methyltransferases as a target for identifying therapeutic agents for leukemia” (The University of North Carolina at Chapel Hill, priority 2003, dated 2017).
“Also recorded” adds a separate entry of the source. Each block holds one compound with its values, some of them ahead of it. Ends that are not written are not given here. Peptide text beside a SMILES is read from it. * marks the point of attachment. Cbz = O=C(OCc1ccccc1)*

What was measured:
[1] = tested on: CRM1-mediated nuclear export of hDOT1L NESs fused with EGFP; assay type: cell-based, human; settings: 20 nM, eight hours after treatment, U2OS cells, FIG. 10E
Method: To further characterize the nuclear export ability of the three NESs identified, it was determined whether the NESs were involved in active nuclear export mediated by the CRM1 (chromosomal region maintenance) pathway. CRM1 was initially identified as a S. pombe protein whose mutation affects higher order chromosome structure (Adachi and Yanagida (1989) J. Cell Biol. 108:1195-1207). Subsequent studies indicate that CRM1 is an export receptor for Leucine-rich nuclear export signals (Fornerod, et al. (1997) Cell 90:1051-1060; Ossareh-Nazari, et al. (1997) Science 278:141-144; Stade, et al. (1997) Cell 90:1041-1050). […] To investigate the effect of LMB treatment on the nuclear export ability of the NESs, U2OS cells were transfected with constructs encoding each of the three NESs fused with EGFP in the presence or absence of 20 nM of LMB. Eight hours after LMB treatment, green fluorescence was observed under a microscope in living cells.

[2] = biological target: T1, hDOT1L Δ(376-390) (Homo sapiens, UniProt Q8TEK3, DEL376-390); assay: Histone methyltransferase assay with peptide competition; assay type: biochemical; settings: 1.5, 15 or 150 μM peptide; oligo-nucleosome substrate; FIG. 6D lanes 5-8
T1 construct: GST (N, cleaved yes); made in house; host or cells: E. coli
Method: (§1) Histone methyltransferase assay was performed using established methods (Wang, et al. (2001) Science 293:853-857). Oligo-nucleosomes purified from HeLa cells or chicken blood cells were quantified and equal concentrations were used in each assay. Briefly, recombinant hDOT1L proteins (0.75 μM) were incubated with oligo-nucleosomes (1.5 μM) in reactions containing 20 mM Tris-HCl (pH 8.0), 4 mM EDTA, 1 mM PMSF, 0.5 mM DTT, and 0.5 μL ^3H-SAM (15 Ci/mM; NEN™ Life Science Products) for 1 hour at 30° C. For peptide competition, 1.5 μM, 15 μM, or 150 μM of positively charged C-RS10 peptide ([…] SEQ ID NO:20) were added to reactions. Reactions were stopped by addition of 7 μL of 5×SDS loading buffer and proteins were separated in an 18% SDS-PAGE. Following stain and destain of COMMASSIE® Blue, gels were treated with Rapid Autoradiography Enhancer (NEN™ Life Science Products, Boston Mass.) for 40 minutes, dried, and exposed to X-ray films. For quantitation, gel slices were excised and counted with scintillation counting. Two independent experiments were performed at the same time and average ^3H (CPM) values were used in the figures.

[3] = biological target: T2, hDOT1L(1-416) (Homo sapiens, UniProt Q8TEK3); assay: as above; assay type: biochemical; settings: 1.5, 15 or 150 μM peptide; oligo-nucleosome substrate; FIG. 6D lanes 1-4
T2 construct: The plasmid expressing the first 416 residues of hDOT1L, pGEX-KG/hDOT1L(1-416); GST (N, cleaved yes); made in house; host or cells: E. coli
Method: as §1

[4] = tested on: hDOT1L binding to HeLa mono-nucleosomes; assay: Gel mobility shift assay (mono-nucleosome binding) with competitor peptide; set-up: species or system human; settings: HeLa mono-nucleosomes 1.5 μM
Method: Different amount of recombinant hDOT1L proteins were incubated with HeLa mono-nucleosomes (1.5 μM) under the same conditions as those in the histone methyltransferase assay, except that SAM is omitted. Following incubation for 1 hour at 30° C., samples were resolved in a 1.8% agarose gel and visualized under UV by ethidium bromide staining.
We next examined mono-nucleosome binding of hDot1(1-416) and several of its truncation variants by gel mobility shift assays (GSMA). […] Consistent with this, we could detect strong, but apparently non-sequence specific, binding of hDOT1L(1-416) with DNA extracted from mono-nucleosomes. To further probe the nature of hDOT1L-nucleosome interaction, we used a 21-residue highly charged peptide, C-RS10, containing 10 tandem repeats of arginine and serine as a competitor in our nucleosome binding and HMTase assays.

[5] = tested on: proteasome (stability of ubiquitinated FLAG-Tat and FLAG-hDOT1L); assay: In vivo ubiquitination assay in 293T cells with proteasome inhibitor; assay type: cell-based, human; set-up: dose or concentration left out as unconfirmed; settings: HA-Ub co-expressed
Method: pcDNA3b-FLAG®-hDOT1L and pcDNA3b-FLAG®-Tat were transfected to 293T cells with or without pHA-Ubiquitin (Ub) by using FUGENE™ 6 transfection reagent (Roche Diagnostics, Indianapolis, Ind.). Twenty-four hours after transfection, MG132 was added at the final concentration of […], and the cells were cultured for […]. Cells were then lysed with lysis buffer (50 mM Tris-HCl, pH 7.5, 0.5 mM EDTA, 1% SDS, and 1 mM DTT), and boiled for 10 minutes before centrifugation at 14,000 rpm for 10 minutes. The supernatant was diluted by 10-fold with NP40 lysis buffer (50 mM Tris-HCl, pH 7.5, 150 mM NaCl, 0.1% NP40, 50 mM NaF, 10% glycerol, 1 mM DTT, and 1 mM PMSF), and incubated with […] of FLAG® (M2) antibody for 4 hours at 4° C. Protein G beads were then added and incubated further for one hour. The beads were washed three times with lysis buffer containing 0.5% of NP40 before eluting the protein with SDS sample buffer for SDS-PAGE analysis.
Protein ubiquitination is the major pathway for rapid protein degradation (Pickart (2001) Annu. Rev. Biochem 70:503-533). Toward this end, we asked whether hDOT1L is subjected to ubiquitination. We transfected 293T cells with a construct encoding FLAG®-hDOT1L with or without co-transfection of a construct encoding HA-tagged ubiquitin. […]

T2 sequence (Q8TEK3 1-416): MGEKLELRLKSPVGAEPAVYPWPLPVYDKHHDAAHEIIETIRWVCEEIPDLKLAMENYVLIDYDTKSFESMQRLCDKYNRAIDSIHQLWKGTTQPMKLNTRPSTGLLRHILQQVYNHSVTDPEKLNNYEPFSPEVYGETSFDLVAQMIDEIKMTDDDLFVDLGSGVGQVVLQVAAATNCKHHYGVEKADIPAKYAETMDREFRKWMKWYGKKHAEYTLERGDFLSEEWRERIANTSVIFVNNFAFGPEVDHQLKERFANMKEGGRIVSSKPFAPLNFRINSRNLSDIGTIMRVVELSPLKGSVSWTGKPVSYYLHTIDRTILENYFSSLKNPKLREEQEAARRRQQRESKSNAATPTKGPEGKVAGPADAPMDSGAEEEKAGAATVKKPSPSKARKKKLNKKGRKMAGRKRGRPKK
T1 sequence (Q8TEK3 with tags, fused parts or gaps DEL376-390): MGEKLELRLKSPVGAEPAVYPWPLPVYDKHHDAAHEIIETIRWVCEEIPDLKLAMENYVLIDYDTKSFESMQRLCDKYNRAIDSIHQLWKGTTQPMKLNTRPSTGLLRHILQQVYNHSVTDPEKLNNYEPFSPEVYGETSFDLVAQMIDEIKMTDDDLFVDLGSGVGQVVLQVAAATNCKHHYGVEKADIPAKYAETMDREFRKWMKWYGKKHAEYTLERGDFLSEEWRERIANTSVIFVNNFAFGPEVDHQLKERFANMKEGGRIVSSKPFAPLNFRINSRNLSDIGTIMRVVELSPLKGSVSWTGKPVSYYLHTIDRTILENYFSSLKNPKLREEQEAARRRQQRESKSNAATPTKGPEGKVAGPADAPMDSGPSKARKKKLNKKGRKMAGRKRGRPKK

Compound: CCC(=C/[C@H](C)C/C=C/C(C)=C/[C@@H](C)C(=O)[C@@H](C)[C@H](O)[C@@H](C)C/C(C)=C/C(=O)O)/C=C/[C@@H]1OC(=O)C=C[C@@H]1C [LMB, Leptomycin B]
Effect on nuclear export by NES1, NES2, NES3 fused with EGFP [1]: prevented nuclear export by all the three NESs; also recorded: can be blocked

HMTase activity of Δ(376-390) in presence of competitor peptide [2]: effectively competed
HMTase activity of hDOT1L(1-416) in presence of competitor peptide [3]: effectively competed
Compound: CRSRSRSRSRSRSRSRSRSRS
Effect of peptide on mono-nucleosome migration in GSMA [4]: prevented mono-nucleosomes from entering the gel well

Compound: CC(C)C[C@@H](C=O)NC(=O)[C@H](CC(C)C)NC(=O)[C@H](CC(C)C)NC(=O)OCc1ccccc1 [MG132] (Cbz-Leu-Leu-Leu-aldehyde)
Stabilization of ubiquitinated FLAG-hDOT1L ([5]; FIG. 8A lanes 4 and 5): did not appear to stabilize
Stabilization of ubiquitinated Tat ([5]; FIG. 8A lanes 6 and 7): successfully stabilized ubiquitinated Tat
